# From patent US20240425460A1, “CRYSTAL FORM OF NIROGACESTAT DIHYDROBROMIDE, AND PREPARATION METHOD THEREFOR, AND USE THEREOF” (CRYSTAL PHARMACEUTICAL (SUZHOU) CO., LTD., priority 2022, published 2024)
# How the values were obtained:
# [1] = Compressibility (tensile strength after compression at 3 KN); type: physicochemical; details: 60 mg, Φ6 mm round tooling, T=2H/πDL
# Method: ENERPAC manual tablet press was used for compression. 60 mg of Form CSII and prior art Form A were weighed and added into the dies of a Φ6 mm round tooling, compressed at 3 KN manually, then stored at room temperature for 24 h until elastic recovery is complete, diameter (D) and thickness (L) were tested with a caliper. Hardness (H) was tested with an intelligent tablet hardness tester. Tensile strength of the powder was calculated with the following formula: T=2H/πDL. […] Under a certain force, the greater the tensile strength, the better the compressibility.
# [2] = Morphology by polarized light microscopy; type: physicochemical; details: PLM, magnification 100 times
# Method: PLM data in the present disclosure were acquired by Sunny CX40P polarizing microscope.
# The parameter of the PLM method of the present disclosure is as follows: • Magnification times: 100
# About 0.5 mg Form CSII and prior art Form A were placed on a glass slide, a small amount of immersion oil was added to disperse the sample, and then the system was covered with a coverslip.
# About 0.5 mg Form CSIII and prior art Form A were placed on a glass slide, a small amount of immersion oil was added to disperse the sample, and then the system was covered with a coverslip.
# physchem = experiment: physchem
# Method: 1.9 mg of Form CSII was weighted into a glass vial, then water was added dropwise at 37° C. until the solid is completely dissolved. The maximum insoluble volume and minimum dissolved volume of the sample in water were recorded, and the solubility of Form CSII in water (mg/mL) was calculated.
# [3] = Particle size distribution (Mastersizer 3000, wet mode); type: physicochemical
# Method: The particle size distribution data in the present disclosure were acquired by a Mastersizer 3000 laser particle size analyzer of Malvern. The test was carried out in wet mode, using a Hydro MV dispersion device, and the dispersant was Isopar G. The parameters are as follows:
# Form CSII and prior art Form A were added into glass vials with the Isopar G (containing 0.2% lecithin). The mixture was mixed thoroughly and transferred into the Hydro MV dispersing device. The experiment was started when the obscuration is in appropriate range. The particle size distributions were tested before and after 60 seconds of ultrasonication to obtain the average particle size, D10 (the portion of particles with diameters below this value is 10%), D50 (the portion of particles with diameters below this value is 50%) and D90 (the portion of particles with diameters below this value is 90%), the results are listed in Table 9.
# [4] = Density and flowability (bulk/tapped density, compressibility index); type: physicochemical; details: for Compressibility index: c=(ρf−ρ0)/ρf; for Tapped density (ρf): tapped 1250 times
# Method: About 300-500 mg of powder were added into a 5-mL measuring cylinder, and a bulk density was recorded. Then the powder was tapped for 1250 times by ZS-2E tap density tester to make it in the tightest state and the tapped volume was recorded. The bulk density (ρ0) and tapped density (ρf) were calculated.
# Compressibility also known as the Compressibility index or Carr index is usually utilized to evaluate the flowability of powder or granules during the drug product process. Compressibility index was calculated according to c=(ρf−ρ0)/ρf. According to criteria of flowability recorded in ICH Q4B Annex 13, the smaller the compressibility index, the better the flowability.
# [5] = for Solubility in FaSSIF / Solubility in FeSSIF: 1 h
# From the text: When solubility test is used to predict the in vivo performance of a drug, it is critical to simulate in vivo conditions as closely as possible. Fasted state simulated intestinal fluid (FaSSIF) and fed state simulated intestinal fluid (FeSSIF) can be used to simulate the conditions in vivo and predict the effects of eating, thus solubilities in these media are closer to those in vivo.
# A certain amount of Form CSII and prior art Form A were suspended into FeSSIF and FaSSIF to get saturated solutions at 37° C. After equilibrated for 1 h, concentrations of the saturated solutions were measured by HPLC.
# A certain amount of Form CSIII and Form A in the prior art were suspended into FeSSIF and FaSSIF to get saturated solutions at 37° C. After equilibrated for 1 h, concentrations of the saturated solutions were measured by HPLC.
# [6] = Physical stability upon mechanical force (tableting, XRPD); type: physicochemical; details: 5 kN pressure for 10 s
# From the text: A certain amount of Form CSII was compressed into a tablet under 5 kN pressure with the dies of a Φ6 mm round tooling by the manual tablet press, and the tablet was kept under 5 kN pressure for 10 s. Crystalline form before and after tableting were checked by XRPD.
# [7] = Stability of drug substance on storage (XRPD, HPLC); type: physicochemical
# Method: A certain amount of Form CSII were stored under different conditions of 25° C./60% RH and 40° C./75% RH after packing with different conditions listed in Table 11. Crystalline forms and chemical purities were checked by XRPD and HPLC, respectively.
# Sealed with desiccants and antioxidants: Put a sample into a glass vial, cover the vial with aluminum foil, and punch holes in the foil, then seal the glass vial with 2 g silica gel desiccants and 2.2 g antioxidants in an aluminum foil bag.
# A certain amount of Form CSIII were stored under different conditions of 25° C./60% RH, 40° C./75% RH and 60° C./75% RH after packing with different conditions listed in Table 16. Crystalline forms were checked by XRPD.
# Sealed with desiccants and antioxidants: Put a sample into a glass vial, cover the vial with aluminum foil, and punch holes in the foil, then seal the glass vial with 2 g silica gel desiccant and 2.2 g antioxidant in an aluminum foil bag.
# [8] = Stability of crystalline form in formulation process (XRPD); type: physicochemical; details: pre-blending, simulated dry granulation, tableting 5 kN
# Method: The XRPD of the blank mixed powder and the samples before and after the formulation was tested.
# [9] = 25° C./60% RH, sealed with desiccant and antioxidant
# [10] = 40° C./75% RH, sealed with desiccant and antioxidant
Tensile strength [1],Morphology [2],Average particle size ([3]; ultrasonication time 0 s),D10 ([3]; ultrasonication time 0 s),D50 ([3]; ultrasonication time 0 s),D90 ([3]; ultrasonication time 0 s),Average particle size ([3]; ultrasonication time 60 s),D10 ([3]; ultrasonication time 60 s),D50 ([3]; ultrasonication time 60 s),D90 ([3]; ultrasonication time 60 s),Bulk density (ρ0) [4],Compressibility index [4],Tapped density (ρf) [4],Solubility in FaSSIF [5],Solubility in FeSSIF [5],"Time the form keeps stable [7, 9]","Time the form keeps stable [7, 10]","Solubility in FaSSIF, times that of prior art Form A [5]","Solubility in FeSSIF, times that of prior art Form A [5]",Structure (SMILES),further results
0.37 MPa,agglomerates,646 μm,21.2 μm,415 μm,1640 μm,629 μm,14.4 μm,356 μm,1660 μm,0.251 g/mL,10.8%,0.282 g/mL,6.7,7.6,–,–,–,–,"Br.Br.CCC[C@H](N[C@H]1CCc2cc(F)cc(F)c2C1)C(=O)Nc1cn(C(C)(C)CNCC(C)(C)C)cn1 [Form A, (S)-2-(((S)-6,8-difluoro-1,2,3,4-tetrahydronaphthalen-2-yl)amino)-N-(1-(2-methyl-1-(neopentylamino)propan-2-yl)-1H-imidazol-4-yl) pentanamide, reference compound]","Solubility in water, class by standards of Chinese Pharmacopoeia and United States Pharmacopoeia (physchem): slightly soluble"
0.68 MPa,uniform plate crystalline form,198 μm,21.9 μm,157 μm,435 μm,119 μm,10.3 μm,81.7 μm,282 μm,0.49 g/mL,5.3%,0.51 g/mL,9.8,11.7,at least 9 months,at least 6 months,1.5 times,1.5 times,"Br.Br.CCC[C@H](N[C@H]1CCc2cc(F)cc(F)c2C1)C(=O)Nc1cn(C(C)(C)CNCC(C)(C)C)cn1 [Form CSII, (S)-2-(((S)-6,8-difluoro-1,2,3,4-tetrahydronaphthalen-2-yl)amino)-N-(1-(2-methyl-1-(neopentylamino)propan-2-yl)-1H-imidazol-4-yl) pentanamide]","Crystalline form after tableting [6]: remains stable after tableting; Solubility in water, times that of Form A (physchem): 3-5 times; solubility (physchem; 37 °C, water, thermodynamic from solid): 19 to 38 mg/mL; Purity after storage ([7]; 25° C./60% RH, 9 months, sealed with desiccants and antioxidants, HPLC): 99.43%; Purity after storage ([7]; 40° C./75% RH, 6 months, sealed with desiccants and antioxidants, HPLC): 99.42%; Purity ([7]; initial, HPLC): 99.37%; Crystalline form after formulation process [8]: remains stable after the formulation process"
–,uniform plate crystalline form,–,–,–,–,–,–,–,–,–,–,–,8.7,11.7,at least 3 months,at least 3 months,1.3 times,1.5 times,"Br.Br.CCC[C@H](N[C@H]1CCc2cc(F)cc(F)c2C1)C(=O)Nc1cn(C(C)(C)CNCC(C)(C)C)cn1 [Form CSIII, (S)-2-(((S)-6,8-difluoro-1,2,3,4-tetrahydronaphthalen-2-yl)amino)-N-(1-(2-methyl-1-(neopentylamino)propan-2-yl)-1H-imidazol-4-yl) pentanamide]","Time the form keeps stable ([7]; 60° C./75% RH, sealed with desiccants and antioxidants): at least 2 months"
